Patent EP1951748B1, “HEPATITIS C VIRUS VARIANTS” (Vertex Pharmaceuticals, Inc., priority 2005, dated 2007)
Values joined by “and” are separate entries in the source; they are usually repeats but may differ in a detail not shown here. Identical values can stand only once.

What was measured:
[1] = tested on: HCV replicon cells containing R155K; assay type: cell-based; details: for Replicon Assay (resistance of viral variant): R155K, value (spread in brackets)
From the text: (§1) The stable wild-type (mADE) and variant HCV sub-genomic replicon cell lines were generated using the T7 RNA runoff transcripts from the corresponding high efficiency Con1 replicon plasmids.
(§2) The stable wild-type and variant HCV sub-genomic replicon cell lines were generated using the T7 RNA runoff transcripts from the corresponding high efficiency Con1 replicon plasmids.

[2] = tested on: HCV replicon cells containing R155M; assay type: cell-based; details: for Replicon Assay (resistance of viral variant): R155M, value (spread in brackets)
From the text: as §1, §2

[3] = tested on: HCV replicon cells containing R155T; assay type: cell-based; details: for Replicon Assay (resistance of viral variant): R155T, value (spread in brackets)
From the text: as §1, §2

[4] = tested on: HCV replicon cells containing R155I; assay type: cell-based; details: value (spread in brackets), 2880 min
[5] = tested on: HCV replicon cells containing R155G; assay type: cell-based; details: value (spread in brackets), 2880 min
HCV NS3 protease T54A = assay type: biochemical
HCV NS3 protease A156S = assay type: biochemical
HCV NS3 protease A156T = assay type: biochemical
[6] = tested on: Con1-based HCV replicon cells with a different set of adaptive mutations (24-2); details: determined previously in 24-2 replicon cells (refs 25,41); read-out: 48-h IC50; cited from earlier work
genotype 1 HCV = assay: Phase 1b clinical trial (Study VX04-950-101), plasma HCV RNA; details: for Δ in VL (Log change in HCV RNA from nadir to Day 14 (end of dosing)): 14 days, one value per subject
[7] = Hepatitis C virus, 48 h, read-out: Replicon IC50

SMILES: COc1ccc2c(O[C@@H]3C[C@H]4C(=O)N[C@]5(C(=O)O)C[C@H]5/C=C\CCCCC[C@H](NC(=O)OC5CCCC5)C(=O)N4C3)cc(-c3csc(NC(C)C)n3)nc2c1 [BILN 2061]
- Replicon Assay (resistance of viral variant) ([1]; 2880 min): 355 (213)
- Replicon Assay (resistance of viral variant) ([2]; 2880 min): 42.2(2.1)
- Replicon Assay (resistance of viral variant) ([3]; 2880 min): 645 (173)
- Replicon Assay (resistance of viral variant) [4]: 36.5 (9.5)
- Replicon Assay (resistance of viral variant) [5]: 821 (208)
- IC50 (HCV NS3 protease T54A; T54A): 0.01 µM
- Fold change (HCV NS3 protease T54A; enzyme IC50 of T54A compared to the genotype 1a HCV-H reference strain, 15 min): 2.3
- IC50 (HCV NS3 protease A156S; A156S): 0.0074 µM
- Fold change (HCV NS3 protease A156S; enzyme IC50 of A156S compared to the genotype 1a HCV-H reference strain, 15 min): 1.6
- Fold change (HCV NS3 protease A156T; enzyme IC50 of A156T compared to the genotype 1a HCV-H reference strain, 15 min): >183

SMILES: CC(C)(C)OC(=O)N[C@H]1CCCCC/C=C\[C@@H]2C[C@@]2(C(=O)NS(=O)(=O)C2CC2)NC(=O)[C@@H]2C[C@@H](OC(=O)N3Cc4cccc(F)c4C3)CN2C1=O [ITMN-191]
- Replicon Assay (resistance of viral variant) ([1]; 2880 min): 62.8
- Replicon Assay (resistance of viral variant) ([3]; 2880 min): 9.2
- Replicon Assay (resistance of viral variant) [4]: 1.3(0.2)
- Replicon Assay (resistance of viral variant) [5]: 18.7(3.0)

SMILES: NC(=O)c1ncn([C@@H]2O[C@H](CO)[C@@H](O)[C@H]2O)n1 [Ribavirin, 1-beta-D-ribofuranosyl-1H-- 1,2,4-triazole-3-carboxamide]
- IC50 [1, 7]: 37 ± 17 µM
- Fold change ([1]; replicon IC50 of R155K divided by that of the wild-type HCV replicon, 2880 min): 0.6 ± 0.3
- IC50 [2, 7]: 39 ± 5 µM
- Fold change ([2]; replicon IC50 of R155M divided by that of the wild-type HCV replicon, 2880 min): 0.7 ± 0.1
- IC50 [3, 7]: 32 ± 18 µM
- Fold change ([3]; replicon IC50 of R155T divided by that of the wild-type HCV replicon, 2880 min): 0.6 ± 0.3

SMILES: CC(C)(C)NC(=O)N[C@H](C(=O)N1C[C@H]2[C@@H]([C@H]1C(=O)NC(CC1CCC1)C(=O)C(N)=O)C2(C)C)C(C)(C)C (stereo partly drawn) [SCH 503034]
- Replicon Assay (resistance of viral variant) ([1]; 2880 min): 6.2(4.9)
- Replicon Assay (resistance of viral variant) ([2]; 2880 min): 2.5(0.3)
- Replicon Assay (resistance of viral variant) ([3]; 2880 min): 10.2(2.4)
- Replicon Assay (resistance of viral variant) [4]: 6.6(2.1)
- Replicon Assay (resistance of viral variant) [5]: 2.8(0.6)

SMILES: CCC[C@H](NC(=O)[C@@H]1[C@H]2CCC[C@H]2CN1C(=O)[C@@H](NC(=O)[C@@H](NC(=O)c1cnccn1)C1CCCCC1)C(C)(C)C)C(=O)C(=O)NC1CC1 [VX-950]
- IC50 (HCV NS3 protease A156T; A156T, one row per patient-specific genetic background): 21.5 µM and 15 µM
- IC50 (HCV NS3 protease A156I): > 50 µM
- IC50 [6]: 0.354 µM
- HCV RNA levels at Day 14 (genotype 1 HCV; 7 patients with continued response, down to undetectable (<10 IU/mL)): ≤ 64 IU/mL
- drop in HCV RNA (initial response) (genotype 1 HCV; 13 patients who later rebounded during dosing): greater than 2 log10
- Δ in VL (Log change in HCV RNA from nadir to Day 14 (end of dosing)) (genotype 1 HCV; dose 450 (mg q8h)): 1.82 and 0.65 and 0.41 and 1.84 and 1.06
- Δ in VL (Log change in HCV RNA from nadir to Day 14 (end of dosing)) (genotype 1 HCV; dose 750 (mg q8h)): 0.73 and 0.22
- Δ in VL (Log change in HCV RNA from nadir to Day 14 (end of dosing)) (genotype 1 HCV; dose 1250 (mg q12h)): 3.20 and 1.16 and 1.93 and 0.05 and 0.33 and 0.62 and 0.26
